The values below come from PubChem BioAssay (NCI).

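In this assay, cells in 96-well plates receive the compound at five concentrations for 48 hours. Endpoints are linearly interpolated between the surrounding concentrations. TGI marks complete inhibition of growth.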 Where only a bound is given, the exact number is not on record here.

Test systems include HT29 colon; OVCAR-3 ovarian; HCT-116 colon; KM12 colon; HS 578T breast; OVCAR-4 ovarian; MDA-MB-231 breast; M14 melanoma; LOX IMVI melanoma; CAKI-1 renal; OVCAR-8 ovarian; HOP-92 NSCLC; HCT-15 colon; T-47D breast; OVCAR-5 ovarian; SF-268 CNS; SK-MEL-2 melanoma; MALME-3M melanoma; RXF 393 renal.
Experiment in all cases: NCI tumour cell line growth inhibition, 48 h

Take `COc1cc2c(cc1OC)C1C=NC(C2)c2cc(OC)c(OC)cc21` (stereo not given): the TGI in the assay with HT29 colon, with OVCAR-3 ovarian, with HCT-116 colon, in the assay on KM12 colon, in the assay with HS 578T breast and in the assay with OVCAR-4 ovarian was > 100 µM throughout. The TGI in the assay on MDA-MB-231 breast, with M14 melanoma, in the assay with LOX IMVI melanoma, in the assay on CAKI-1 renal, with OVCAR-8 ovarian and in the assay with HOP-92 NSCLC was > 100 µM each time. The TGI with HCT-15 colon, with T-47D breast, in the assay on OVCAR-5 ovarian, with SF-268 CNS and in the assay on SK-MEL-2 melanoma was > 100 µM in each case.
For the molecule `CN1c2ccccc2C(=O)NC12CCN(CCCC(=O)c1ccc(F)cc1)CC2`, the TGI is 56.1 µM in the assay with HT29 colon; > 100 µM with OVCAR-3 ovarian; 86.5 µM in the assay on MALME-3M melanoma; > 100 µM in the assay with HCT-116 colon; > 100 µM in the assay on KM12 colon; > 100 µM in the assay on HS 578T breast. The TGI with OVCAR-4 ovarian was > 100 µM; in the assay on MDA-MB-231 breast, > 100 µM; in the assay on M14 melanoma, 32.5 µM; with CAKI-1 renal, > 100 µM; in the assay on OVCAR-8 ovarian, > 100 µM; in the assay with HOP-92 NSCLC, > 100 µM. Further, the TGI in the assay with HCT-15 colon was > 100 µM; in the assay with T-47D breast it was > 100 µM; in the assay on OVCAR-5 ovarian it was > 100 µM; in the assay on SF-268 CNS, 88.9 µM; in the assay with RXF 393 renal, > 100 µM; with SK-MEL-2 melanoma, > 100 µM.
`CO/C(=N\N=C\c1ccc(OC)c(OC)c1)c1ccncc1`: the TGI in the assay on MALME-3M melanoma, with KM12 colon, in the assay on HS 578T breast, in the assay on OVCAR-4 ovarian, in the assay with MDA-MB-231 breast and in the assay on M14 melanoma was > 10 µM in each case. Moreover, the TGI in the assay with LOX IMVI melanoma, in the assay on CAKI-1 renal, in the assay on OVCAR-8 ovarian, with HOP-92 NSCLC, in the assay on HCT-15 colon and in the assay on T-47D breast was > 10 µM in each case. In the assay on SF-268 CNS, the TGI is > 10 µM.
Turning to `C=CC[C@@H](N)C(=O)N(C)[C@@H](C)[C@@H](O)c1ccccc1`, the TGI with OVCAR-3 ovarian, with HCT-116 colon, in the assay with KM12 colon, in the assay on HS 578T breast, with OVCAR-4 ovarian and with MDA-MB-231 breast was > 100 µM each time. The TGI in the assay with M14 melanoma, in the assay on LOX IMVI melanoma, in the assay with CAKI-1 renal, in the assay with OVCAR-8 ovarian, with HOP-92 NSCLC and with HCT-15 colon was > 100 µM in each case. Also, the TGI with T-47D breast, in the assay with SF-268 CNS and with SK-MEL-2 melanoma was > 100 µM in each case.
As to `O=C(NC1CCCCC1NC(c1ccccc1)(c1ccccc1)c1ccccc1)C(=O)NC1CCCCC1NC(c1ccccc1)(c1ccccc1)c1ccccc1` (stereo not given), the TGI is > 100 µM with HT29 colon; > 100 µM with OVCAR-3 ovarian; > 100 µM with MALME-3M melanoma; > 100 µM in the assay with HCT-116 colon; > 100 µM with KM12 colon; 72.5 µM with HS 578T breast. The TGI with OVCAR-4 ovarian was 76.3 µM; in the assay with MDA-MB-231 breast, > 100 µM; in the assay on LOX IMVI melanoma, > 100 µM; in the assay with CAKI-1 renal it was > 100 µM; in the assay with OVCAR-8 ovarian, > 100 µM; with HOP-92 NSCLC it was 60.5 µM. For the same molecule, the TGI in the assay with HCT-15 colon, with T-47D breast, in the assay on OVCAR-5 ovarian, in the assay on SF-268 CNS and in the assay with SK-MEL-2 melanoma was > 100 µM in each case.
Turning to `CC1=NC(=Cc2cccc(Cl)c2)C(=O)N1n1c(-c2ccccc2)nc2ccccc2c1=O`, the TGI is 94.8 µM with HT29 colon; 82.1 µM in the assay with MALME-3M melanoma; > 100 µM in the assay with HCT-116 colon; > 100 µM in the assay with KM12 colon; > 100 µM in the assay on HS 578T breast; > 100 µM in the assay with MDA-MB-231 breast. Also, the TGI with M14 melanoma is > 100 µM; in the assay on LOX IMVI melanoma, 55.2 µM; with CAKI-1 renal it was 87.6 µM; in the assay with OVCAR-8 ovarian, > 100 µM; with HCT-15 colon it was > 100 µM; in the assay with T-47D breast it was 69 µM. For the same molecule, the TGI in the assay on SF-268 CNS was > 100 µM.
As to `Cn1c(=O)c2c(nc3n2CC(=O)N3CCCCl)n(C)c1=O`, the TGI in the assay on HT29 colon, in the assay with OVCAR-3 ovarian, in the assay with HCT-116 colon, with KM12 colon, with HS 578T breast and in the assay with OVCAR-4 ovarian was > 100 µM each time. In addition, the TGI with MDA-MB-231 breast, with M14 melanoma, in the assay with LOX IMVI melanoma, with CAKI-1 renal, in the assay on OVCAR-8 ovarian and with HOP-92 NSCLC was > 100 µM each time. For the same molecule, the TGI with HCT-15 colon, in the assay on T-47D breast, in the assay on OVCAR-5 ovarian, with SF-268 CNS and with SK-MEL-2 melanoma was > 100 µM each time.
